Assay results from US20180179166A1, “SMALL MOLECULE INHIBITORS OF GP120-MEDIATED HIV INFECTION AND METHODS OF USE” (ViroCarb Inc., priority 2014, published 2018).
Read-outs that look alike come from different tables or passages of the source.

Assays:
[1] = tested on: HIV-1IIIB virus (X4 tropism); test: Protocol 1: inhibition of HIV-1 in Jurkat T-cells, p24gag ELISA; assay type: cell-based; details: read-out: percent inhibitory activity
Description: HIV-1IIIB virus (X4 tropism) was pretreated with a control solution of DMSO or a given compound dissolved in DMSO to a final concentration of 100 μM for 1 hr at 37° C. Pretreated HIV-1 virus was then added (100 μl of 0.1 MOI) to 0.5×10^6 Jurkat (JKT C) T-cells in 100 μl RPMI media and incubated at 37° C. for an additional 1 hr with occasional mixing.
After 1 hour, the cells were centrifuged at 1000 rpm for 5 minutes and the cell pellet washed wash thrice with 2 ml Ca^2+ Mg^2+ free PBS. After the last wash, the cells were resuspended in medium and transferred to 12-well tissue culture plates and placed at 37° C.
On days 2 and 5 of culture, 0.5 ml aliquots of culture supernatant is collected and replaced with 0.5 ml of fresh medium. Aliquots are stored at −80° C. until ready for p24gag ELISA. ELISA for p24gag was done using ELISA plates from Zeptometrix using a standard protocol.

[2] = tested on: HIV-1 BaL virus (R5 tropism); test: Protocol 2: inhibition of HIV-1 in PBMC, virus pre-treated with compound, p24gag ELISA; assay type: cell-based; details: Human immunodeficiency virus 1, 144 h, 100 μM compound, HIV-1 BaL (R5), day 6, read-out: percent inhibitory activity
Description: The protocol involves PBMCs which were purified by centrifugation at 500 g using Ficoll-Paque™ reagent. The cells were re-suspended in RPMI (10% FBS, 2 ug/ml PHA, 20 U/ml of IL-2) and incubated at 37° C. in 5% CO2 for 3 days.
HIV-1 BaL virus (R5 tropism) was pre-treated with a control solution of DMSO or a given compound dissolved in DMSO to a final concentration of 20-100 μM for 1 hour at 37° C. Pretreated HIV-1 viruses were then added (100 μl of 0.1 MOI) to 5×10^5 PBMCs in 100 μl RPMI media and then incubated at 37° C. for an additional 1 hour with occasional mixing. After 1 hour, the cells were centrifuged at 1000 rpm for 5 minutes and the cell pellet washed wash thrice with 2 ml Ca^2+ Mg^2+ free PBS.
After the last wash, the cells are re-suspended in medium and transferred to 12-well tissue culture plates and place at 37° C.
On day 6 of culture, 0.5 ml aliquots of culture supernatant were collected. Aliquots were stored at −80° C. until ready for p24gag ELISA. ELISA for p24gag was done using ELISA plates from Zeptometrix using a standard protocol.

[3] = tested on: HIV-BaL virus (R5 tropism); test: Protocol 4: inhibition of HIV-1 in U87.CD4.CCR5 cells, p24gag ELISA; assay type: cell-based; details: Human immunodeficiency virus 1, 96 h, day 4 post-infection, read-out: percent inhibitory activity; for inhibition at 20 µM: 20 μM compound
Description: U87.CD4.CCR5 cell lines (5×10^4/well) were seeded in 24 well plates overnight. HIV-BaL virus (R5 tropism) was pretreated with a control solution of DMSO or a given compound dissolved in DMSO to a final concentration of 20-200 μM for 1 hr at 37° C.
Pretreated HIV-1 virus was then added (100 μl of 0.1 MOI) to pre-plated U87.CD4.CCR5 cells in 200 μl DMEM media and then incubated at 37° C. for an additional 1 hour with occasional mixing.
After 1 hour, the cells in each well were washed with 1 ml Ca^2+ Mg^2+ free PBS three times. After the last wash, 1 ml of DMEM was added to each well. On day 4 post-infection, 0.2 ml aliquots of culture supernatant was collected. Aliquots were stored at −80° C. until ready for p24gag ELISA. ELISA for p24gag was done using ELISA plates from Zeptometrix using a standard protocol.

[4] = tested on: HIV-1IIIB virus (X4 tropism); test: Protocol 1: inhibition of HIV-1 in Jurkat T-cells, p24gag ELISA; assay type: cell-based; details: Human immunodeficiency virus 1, 20 μM compound, HIV-1IIIB (X4), read-out: percent inhibitory activity
[5] = tested on: HIV-BaL virus (R5 tropism); test: Protocol 3: inhibition of HIV-1 in TZM-bl reporter cells, luciferase, R5 virus; assay type: cell-based; details: Human immunodeficiency virus 1, BAL, read-out: percent inhibitory activity against R5; for inhibition at 200 µM: 200 μM compound
Description: (§1) HIV-BaL virus (R5 tropism) and HIV-1 IIIb virus (X4 tropism) were pretreated with a given compound dissolved in DMSO to a final concentration of 100-200 μM for 1 hr at 37° C. in 96 well tissue culture plates. The TZM-bl HIV reporter cell line (1×10^4/well) in 100 ul DMEM is then added to each well and the 96 well tissue culture plates are incubated at 37° C. in 5% CO2 incubator.
(§2) TZM-bl cells were obtained from the NIH AIDS Reagent Program (Germantown Md., USA). TZM-bl, previously designated JC53-bl (clone 13) is a HeLa cell line. The parental cell line (JC.53) stably expresses large amounts of CD4 and CCR5. The TZM-bl cell line was generated from JC.53 cells by introducing separate integrated copies of the luciferase and ß-galactosidase genes under control of the HIV-1 promoter. The TZM-bl cell line is highly sensitive to infection with diverse isolates of HIV-1. The TZM-bl indicator cell line enables simple and quantitative analysis of HIV using either ß-gal or luciferase as a reporter. It is maximally sensitive to HIV infection by including DEAE-dextran in the infection medium. […] Further information about TZM-bl cells can be found in U.S. Pat. No. 6,797,462, issued to Tranzyme Pharma.
(§3) After 48 hours, half of the medium was removed and replaced with commercially available reagents that contain lysing buffer and substrate for luciferase. After 2 minutes of lysis and incubation, the luciferase activity of the TZM-bl cell is read using a commercial luminometer. The readout is translated as relative light units (RLU).

[6] = tested on: HIV-1 IIIb virus (X4 tropism); test: Protocol 3: inhibition of HIV-1 in TZM-bl reporter cells, luciferase, X4 virus; assay type: cell-based; details: Human immunodeficiency virus 1, IIIB, read-out: percent inhibitory activity against X4; for inhibition at 200 µM: 200 μM compound
Description: as §1, §2, §3

[7] = tested on: HIV BaL; test: Example 5: HIV inhibition in human PBMC infected first, then treated with compound; assay type: cell-based, HIV-1; details: read-out: % HIV inhibitory activity
Description: In this Example, Compounds #32 and #38 were tested using human peripheral blood mononuclear cells (PBMC). The protocol used is the same as that of Example 2—Protocol 2, delineated in detail, above.
Methods. Briefly, 5×10^5 activated PBMCs were used per well in a 12-well tissue culture plate. The PBMCs were infected with HIV BaL for 1 hour and washed 2× with RPMI medium. The PBMCs were then mixed with compound #32 or #38 at concentrations of 6.0 μM, 25 μM or 100 μM, with solutions containing 20U/m1 of IL-2.
At day 3-post infection, 500 μl of fresh medium containing appropriate concentration of compounds were added. The supernatants were harvested at day 8. The level of HIV infection was determined as described in protocol 2.

[8] = tested on: JR-FL-R5 virus; test: Example 6: U87.CD4.CCR5 cells infected with replication-deficient luciferase HIV strain; assay type: cell-based; details: Human immunodeficiency virus 1, U87/CD4/CCR5, 48 h, read-out: % HIV inhibitory activity
Description: Methods. U87.CD4.CCR5 cells (2.5×10^4/well) were seeded overnight and then infected with a replication-deficient HIV strain containing a luciferase insertion in the nef gene (JR-FL-R5 virus). JR-FL-R5 virus was pre-incubated with each compound for 1 hour prior to infection. After two days, the cells were washed, lysed and measured for luciferase activity, which is indicative of viral integration and/or transcription. Compounds were tested in quadruplicates.

[9] = Human immunodeficiency virus 1, 100 μM compound, HIV-1IIIB (X4), Jurkat T-cells
[10] = Human immunodeficiency virus 1, Jurkat
[11] = Human immunodeficiency virus 1, BAL, PBMC, 192 h
[12] = 100 μM compound, TZM-bl cells, 48 hours

`CCOC(=O)c1cnc(SCC(=O)Nc2cccc(C(=O)O)c2)nc1N` [#1] gave an inhibition at 100 µM [1, 9] of 3%.

`Nc1cc(=O)[nH]c(SCC(=O)Nc2ccc(C(=O)O)cc2)n1` [#2] gave an inhibition at 100 µM [1, 9] of 88% and an inhibition at 100 µM [2] of 30%.

Molecule `O=C(CSc1nnc(O)nc1O)N/N=C/c1ccc(C(=O)O)cc1` [#3] has an inhibition at 100 µM [1, 9] of 71% and an inhibition at 100 µM [2] of 34%.

Molecule `Nc1cc(=O)[nH]c(SCC(=O)Nc2ccc3c(c2)OCO3)n1` [#21] has an inhibition at 100 µM [2] of 40%.

`Nc1cc(=O)[nH]c(SCC(=O)Nc2ccc(F)c(Cl)c2)n1` [#25] was tested, and the inhibition at 100 µM [1, 10] was 18%.

Molecule `Nc1cc(=O)[nH]c(SCC(=O)Nc2ccc([N+](=O)[O-])cc2)n1` [#27] has an inhibition at 100 µM [1, 10] of 20%.

Molecule `Nc1cc(=O)[nH]c(SCC(=O)Nc2ccc(C(=O)O)cn2)n1` [#28] has an inhibition at 20 µM [3] of 27%.

With `CCOC(=O)c1ccc(NC(=O)CSc2nc(N)cc(=O)[nH]2)nc1` [#29] the inhibition at 20 µM [3] was 24% and the inhibition at 20 µM [4] was 75%.

`Nc1cc(=O)[nH]c(SCC(=O)Nc2cnc(C(=O)O)cn2)n1` [#30] was tested, and the inhibition at 20 µM [3] was 19%.

`COC(=O)c1cnc(NC(=O)CSc2nc(N)cc(=O)[nH]2)cn1` [#31] showed an inhibition at 20 µM [3] of 21%.

With `Nc1cc(=O)[nH]c(SCC(=O)Nc2ccc(CC(=O)O)cc2)n1` [#32] the inhibition at 200 µM ([5]; TZM-bl cells, 48 hours) was 94%, the inhibition at 200 µM ([6]; TZM-bl cells, 48 hours) was 61% and the inhibition at 6 µM ([7]; Human immunodeficiency virus 1, 192 h, 6.0 μM compound, human PBMC, HIV BaL, day 8) was 54%. The inhibition at 25 µM ([7]; Human immunodeficiency virus 1, 192 h, 25 μM compound, human PBMC, HIV BaL, day 8) was 65%, the inhibition at 100 µM ([7]; Human immunodeficiency virus 1, 192 h, 100 μM compound, human PBMC, HIV BaL, day 8) was 82% and the inhibition at 2 µM [8] was 32%. The inhibition at 20 µM [4] was 80%.

With `CCOC(=O)Cc1ccc(NC(=O)CSc2nc(N)cc(=O)[nH]2)cc1` [#33] the inhibition at 20 µM [3] was 27%.

`Nc1cc(=O)[nH]c(SCCC(=O)Nc2ccc(C(=O)O)cc2)n1` [#34] showed an inhibition at 200 µM ([5]; TZM-bl cells, 48 hours) of 61%, an inhibition at 200 µM ([6]; TZM-bl cells, 48 hours) of 62% and an inhibition at 20 µM [3] of 33%.

In the case of `COC(=O)c1ccc(NC(=O)CCSc2nc(N)cc(=O)[nH]2)cc1` [#35], the inhibition at 20 µM [3] was 27%.

With `Nc1cc(=O)[nH]c(SCCC(=O)NCc2ccc(C(=O)O)cc2)n1` [#36] the inhibition at 20 µM [3] was 7% and the inhibition at 20 µM [4] was 50%.

`O=C(CSc1nnc(O)nc1O)N/N=C/c1ccccn1` [#37] gave an inhibition at 100 µM [1, 9] of 45% and an inhibition at 200 µM ([3]; 200 μM compound) of 28%.

`O=C(CSc1nnc(O)nc1O)N/N=C/C=C/c1ccccc1` [#38] gave an inhibition at 100 µM [1, 10] of 44%, an inhibition at 100 µM ([5]; TZM-bl, 48 h) of 73% and an inhibition at 100 µM ([6]; TZM-bl, 48 h) of 69%. It also gave an inhibition at 6 µM [7, 11] of 70%, an inhibition at 25 µM [7, 11] of 90% and an inhibition at 100 µM [7, 11] of 100%. It also gave an inhibition at 2 µM [8] of 30%.

Work on `O=C(CSc1nnc(O)nc1O)N/N=C/c1ccc(Br)cc1` [#39] yielded an inhibition at 100 µM [1, 9] of 32%, an inhibition at 100 µM [5, 12] of 15% and an inhibition at 100 µM [6, 12] of 15%.

Work on `O=C(CSc1nnc(O)nc1O)N/N=C/c1cccnc1` [#40] yielded an inhibition at 100 µM [5, 12] of 71% and an inhibition at 100 µM [6, 12] of 57%.

`O=C(CSc1nnc(O)nc1O)N/N=C/c1ccc(O)c([N+](=O)[O-])c1` [#41] gave an inhibition at 100 µM [5, 12] of 14% and an inhibition at 100 µM [6, 12] of 10%.

Work on `O=C(CSc1nnc(O)nc1O)N/N=C/c1ccc(C(=O)O)cn1` [#42] yielded an inhibition at 100 µM [5, 12] of 25% and an inhibition at 100 µM [6, 12] of 25%.

Work on `CCOC(=O)c1ccc(/C=N/NC(=O)CSc2nnc(O)nc2O)nc1` [#43] yielded an inhibition at 100 µM [5, 12] of 12% and an inhibition at 100 µM [6, 12] of 16%.

`O=C(CSc1nnc(O)nc1O)N/N=C/c1ccc(-c2nn[nH]n2)cn1` [#44] was tested, and the inhibition at 20 µM [3] was 10%.

For `O=C(CSc1nnc(O)nc1O)N/N=C/c1ccc(-c2nccs2)cn1` [#47], the inhibition at 100 µM [5, 12] was 27% and the inhibition at 100 µM [6, 12] was 29%.

`O=C(Cc1nnc(O)nc1O)N/N=C/C=C/c1ccccc1` [#48] showed an inhibition at 0.05 µM [8] of 28%.

Work on `O=C(CC1CCS(=O)(=O)C1)N/N=C/C=C/c1ccccc1` (centres unmarked) [#49] yielded an inhibition at 0.05 µM [8] of 45%.

`O=C(Cn1c(-c2ccccn2)nc2ccccc21)N/N=C/C=C/c1ccccc1` [#51] was tested, and the inhibition at 0.05 µM [8] was 22%.
